Data: ChEMBL document CHEMBL5096168, “An insight on medicinal aspects of novel HIV-1 capsid protein inhibitors” (Eur J Med Chem, 2021)
Each block holds one compound with its values, some of them ahead of it.

Experiments:
[1] = test system: Human immunodeficiency virus 1; assay: Antiviral activity against HIV 1 infected in human SUP-T1 cells assessed as inhibition of viral replication by measuring luciferase activity after 72 hrs by steady glo reagent based luminescence assay; type: functional, organism-based; details: Human immunodeficiency virus 1, SUP-T1, 72 h
[2] = test system: Human immunodeficiency virus 1; assay: Antiviral activity against HIV 1 in human C8166 cells expressing LTR-luciferase reporter gene assessed as inhibition of viral replication incubated for 72 hrs by multiple-cycle viral replication assay; type: functional, organism-based; details: Human immunodeficiency virus 1, C8166, 72 h
[3] = test system: Human immunodeficiency virus 1; assay: Antiviral activity against HIV 1 infected in human PBMC cells assessed as viral inhibition incubated for 7 days with media replacement for every 3 days by ELISA; type: functional, organism-based; details: Human immunodeficiency virus 1, PBMC
[4] = test system: Human immunodeficiency virus 1; assay: Antiviral activity against recombinant HIV 1 expressing luciferase and envelope glycoprotein of HIV-1 YU-2 infected in Cf2Th-CCR5 cells assessed as inhibition of viral infection by measuring luciferase activity; type: functional, organism-based; details: Human immunodeficiency virus 1, Cf2Th-CCR5
[5] = molecular target: Structural capsid protein (Human immunodeficiency virus 1, UniProt Q76129); assay: Inhibition of HIV 1 capsid CTD dimerization incubated for 5 hrs by TR-FRET assay
Chain of Structural capsid protein (Q76129 whole entry): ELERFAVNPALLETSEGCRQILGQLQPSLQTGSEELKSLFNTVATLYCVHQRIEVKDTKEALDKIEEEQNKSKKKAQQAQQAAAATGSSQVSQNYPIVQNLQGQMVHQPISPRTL

[6] = test system: Human immunodeficiency virus 1; assay: Antiviral activity against HIV 1 infected in HeLa cells transfected with CD4,[…] and LacZ gene assessed as reduction in viral replication measured after 72 hrs by ELISA; type: functional, organism-based; details: Human immunodeficiency virus 1, HeLa
[7] = test system: Human immunodeficiency virus 1; assay: Antiviral activity against HIV 1 NL4-3; type: functional, organism-based; details: Human immunodeficiency virus 1, NL4-3
[8] = test system: Human immunodeficiency virus 1; assay: Antiviral activity against HIV 1 NL4-3 infected in human MT2 cells assessed as inhibition of replication by XTT assay; type: functional, organism-based; details: Human immunodeficiency virus 1, NL4-3, MT2
[9] = test system: Human immunodeficiency virus 1; assay: Antiviral activity against HIV 1 NL4-3 infected in […] MT2 cells assessed as reduction in luciferase activity incubated for 4 to 5 days; type: functional, organism-based; details: Human immunodeficiency virus 1, NL4-3, MT2
[10] = test system: Human immunodeficiency virus 1; assay: Antiviral activity against HIV 1 infected in human TZM-bl cells by MTT assay; type: functional, organism-based; details: Human immunodeficiency virus 1, TZM-bl
TZM = assay: Cytotoxicity against human TZM-bl cells assessed as reduction in cell viability incubated for 1 day by CytoTox-Glo stain based assay; type: functional; details: 24 h
[11] = test system: Human immunodeficiency virus 1; assay: Antiviral activity against HIV 1; type: functional, organism-based
[12] = test system: Human immunodeficiency virus 2; assay: Antiviral activity against HIV 2; type: functional, organism-based
[13] = Metabolic stability in C57Bl/6 mouse liver microsomes assessed as half life by LC-MS/MS analysis; type: ADME, Microsome
[14] = test system: Human immunodeficiency virus 1; assay: Antiviral activity against HIV 1 infected in […] MT4 cells; type: functional, organism-based; details: Human immunodeficiency virus 1, MT4
MT4 = assay: Cytotoxicity against […] MT4 cells; type: functional; details: Homo sapiens
[15] = test system: Human immunodeficiency virus 1; assay: Antiviral activity against HIV 1 assessed as log 10 reduction in viral load; type: functional
[16] = test system: Human immunodeficiency virus 1; assay: Antiviral activity against HIV 1 NL4-3 infected in human C8166 cells expressing LTR-luciferase reporter gene assessed as inhibition of viral replication pretreated with virus for 1.5 hrs followed by compound addition and measured after 3 days; type: functional, organism-based; details: Human immunodeficiency virus 1, NL4-3, C8166
[17] = Modulation of capsid disassembly in HIV 1 NL4-3 infected in human C8166 cells expressing LTR-luciferase reporter gene assessed as inhibition of viral protein disassembly; type: functional, cell-based; details: Human immunodeficiency virus 1, NL4-3, C8166

- EC50 [1]: 1800 nM
- EC50 [2]: 1400 nM
Compound: O=C1NC(c2cccnc2)c2c(-c3ccccc3)n[nH]c21 (stereo not given)

Compound: CCCCC[C@](C)(NC(=O)[C@H](CC(C)C)NC(=O)[C@H](CC(C)C)NC(=O)[C@H](CC(=O)O)NC(=O)[C@](C)(CCCCC)NC(=O)[C@H](Cc1ccccc1)NC(=O)[C@@H](NC(=O)[C@@H](N)[C@@H](C)CC)[C@@H](C)O)C(=O)N[C@@H](Cc1ccc(O)cc1)C(=O)N[C@@H](Cc1ccc(O)cc1)C(=O)NCC(=O)N1CCC[C@H]1C(=O)O
- IC50 [3]: 4000 nM

- IC50 [4]: 22500 nM
Compound: O=C(O)c1ccc(-c2nc(-c3ccccc3)c(-c3ccccc3)[nH]2)cc1

- IC50 [4]: 33300 nM
Compound: O=C(O)c1ccc(-c2nc(-c3ccc4oc5ccc(-c6nc(-c7ccc(C(=O)O)cc7)[nH]c6-c6ccccc6)cc5c4c3)c(-c3ccccc3)[nH]2)cc1

Compound: O=c1c2ccccc2[se]n1-c1ccccc1 [EBSELEN]
- IC50 [5]: 46.7 nM
- EC50 [6]: 4250 nM

- IC50 [7]: 57000 nM
Compound: O=C(O)c1ccc(-c2ccc3c(c2)nc(-c2c[nH]nc2-c2cccc(Cl)c2)n3CCCn2ccnc2)cc1

Compound: Cc1[nH]c2ccccc2c1CC(=O)N[C@@H](Cc1ccccc1)C(=O)N(C)c1ccccc1
- EC50 [8]: 570 nM

- EC50 [9]: 0.025 nM
Compound: Cn1nc(NS(C)(=O)=O)c2cccc(-n3c([C@H](Cc4cc(F)cc(F)c4)NC(=O)Cn4nc(C(F)F)c5c4C(F)(F)[C@H]4C[C@@H]54)nc4cc(-c5ncccn5)ccc4c3=O)c21

Compound: COc1ccc(N(C)C(=O)[C@H](Cc2cc(F)cc(F)c2)NC(=O)c2cccc(-c3cn(-c4ccc([N+](=O)[O-])cc4)nn3)c2)cc1
- EC50 [10]: 2130 nM
- CC50 (TZM): > 35500 nM

- EC50 [11]: 0.14 nM
- EC50 [12]: 0.14 nM
- half-life [13]: 7.2 h
Compound: CC(C)(C#Cc1ccc(-c2ccc(Cl)c3c(NS(=O)(=O)C4CC4)nn(CC(F)(F)F)c23)c([C@H](Cc2cc(F)cc(F)c2)NC(=O)Cn2nc(C(F)(F)F)c3c2C(F)(F)[C@@H]2C[C@H]32)n1)S(C)(=O)=O

- EC50 [14]: 0.1 nM
Compound: CC(C)(C#Cc1ccc(-c2ccc(Cl)c3c(NS(C)(=O)=O)nn(CC(F)(F)F)c23)c([C@H](Cc2cc(F)cc(F)c2)NC(=O)Cn2nc(C(F)(F)F)c3c2C(F)(F)[C@@H]2C[C@H]32)n1)S(C)(=O)=O [LENACAPAVIR]
- CC50 (MT4): 27000 nM
- log(activity) [15]: 0.5

Compound: CCc1cc(-c2ccc(C(F)(F)F)o2)n(-c2ccc3c(c2)nc(-c2cc(C(=O)N4CCCC4)ccc2O)n3Cc2ccc(=O)[nH]c2)n1
- EC50 [16]: 62 nM
- IC50 [17]: 61 nM
